Measured values taken from PMC12584752, “Covalent fragment screening to inhibit the E3 ligase activity of bacterial NEL enzymes SspH1 and SspH2” (RSC Chemical Biology, 2025).

molecular target: SspH1 (161–700) (Salmonella typhimurium, UniProt D0ZVG2); assay: Round 1 intact protein LC-MS covalent fragment labelling screen and dilution series; format: binding; design: Recombinant IpaH9.8 (21–545) and SspH1 (161–700) were incubated at 0.5 μM; His-tag (N, cleaved yes); made in house; host or cells: E. coli BL21; details: round 1 screen; 0.5 μM SspH1, 50 μM fragments, 24 hours at 4 °C
Procedure: A diverse library of 227 compounds with chloroacetamide warheads, featuring a diversity of molecular weight (162–321 Da) and clog P (−1.4 to 3.4) (Table S1), were screened against Salmonella and Shigella NEL E3 ligases using our intact protein liquid chromatography mass spectrometry (LC-MS) platform as previously described.[39,40] Briefly, recombinant SspH1 (161–700[30]) and IpaH9.8 (21–545[29]) (Fig. 1A and B) were incubated with 50 μM fragments for 24 hours at 4 °C before analysis by LC-MS (Fig. 1C). Raw counts were deconvoluted and the labelling percentage calculated by detection and comparison of protein and protein-fragment molecular weights.
Fig. 1 Intact protein LCMS screening of covalent fragment library against NEL proteins. (A) Cartoon depicting conserved NEL E3 ligase domains; (B) overlaid structures of SspH1 (blue, PDB 9H6W[30]) and IpaH9.8 (green, PDB 6LOL[29]) aligned on NEL domain; (C) workflow of covalent fragment screening using intact LC-MS; (D) fragment labelling percentages for SspH1 and IpaH9.8 with fragments 1–3 highlighted. Recombinant IpaH9.8 (21–545) and SspH1 (161–700) were incubated at 0.5 μM with 50 μM fragments for 24 hours at 4 °C, before fragment labelling was analysed by intact LC-MS; (E) chemical structures of fragments 1–3.
We next analysed the potency of compounds 4–10 against SspH1. The seven compounds were obtained as purified compounds (Table S2) and screened against SspH1 by intact LC-MS (Fig. 3A) with two-fold serial dilution (100–6.25 μM). To confirm which of the two cysteines in the SspH1 161–700 construct were labelled, we repeated the concentration response experiment with a catalytic cysteine mutant of SspH1 (C492K) (Fig. 3B). The complete abrogation of labelling confirmed that all […] compounds labelled the catalytic cysteine of SspH1.
1 μM IpaH9.8 or SspH1 were incubated with […] fragments for 24 hours at 4 °C, in 25 mM HEPES pH 7.5, 50 mM NaCl buffer. Intact protein LC-MS was performed as previously described.[40] The following deconvolution conditions were used for recombinant proteins studied in this work:
Dilution series experiments were performed as for 1st round screening. 1 μM OTUD4, OTUD5 or 0.5 μM HOIL, UbcH5A, SspH2, SspH1 C492K were incubated with 100–6.25 μM compounds for 24 hours at 4 °C, in 25 mM HEPES pH 7.5, 50 mM NaCl buffer. Intact protein LC-MS was performed as previously described.[40] The following deconvolution conditions were used for recombinant proteins studied in this work: […]

Chain of SspH1 (161–700) (D0ZVG2 161-700): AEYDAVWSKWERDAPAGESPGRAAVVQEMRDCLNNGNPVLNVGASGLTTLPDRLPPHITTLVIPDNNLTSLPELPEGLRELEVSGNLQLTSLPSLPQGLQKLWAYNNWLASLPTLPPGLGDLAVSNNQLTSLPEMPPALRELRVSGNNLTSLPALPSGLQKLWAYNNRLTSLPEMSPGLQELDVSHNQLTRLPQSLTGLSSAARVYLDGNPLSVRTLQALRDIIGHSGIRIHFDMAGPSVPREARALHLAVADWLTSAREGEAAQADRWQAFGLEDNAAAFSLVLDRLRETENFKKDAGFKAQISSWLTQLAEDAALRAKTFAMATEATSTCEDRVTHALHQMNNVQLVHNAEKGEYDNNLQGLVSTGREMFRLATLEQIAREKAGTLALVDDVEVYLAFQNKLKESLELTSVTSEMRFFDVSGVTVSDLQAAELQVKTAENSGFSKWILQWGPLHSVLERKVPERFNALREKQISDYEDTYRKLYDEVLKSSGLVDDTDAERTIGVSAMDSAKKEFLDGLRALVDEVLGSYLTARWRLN

| Structure (SMILES) | protein labelling percentage |
| --- | --- |
| O=C(CCl)N1CCCN(C(=O)c2ccc(Cl)cc2)CC1 [fragment 1] | greater than 30% |
| Cc1cccn2cc(CCNC(=O)CCl)nc12.Cl [fragment 3] | greater than 30% |
| Cl.O=C(CCl)N1CCC(n2nc3ccccc3n2)CC1 [fragment 2] | greater than 30% |
